Source: patent publication US7745161B2, “Amplification of enzymatic reactions for use with an enthalpy array” (Palo Alto Research Center Incorporated, priority 2003, dated 2010)

Target: T1, GPCR P2Y6 receptor complex (Homo sapiens, UniProt Q15077)
T1 construct: made in house; host or cells: baculovirus-inoculated insect cell (membrane fragments)
Experiment: Nanocalorimetry measurement of agonist binding to a GPCR, amplified by G-protein hydrolysis of GTP
Assay type: biochemical
Conditions: after merging [UDP]=0.4 mM, [GTP]=1.15 mM
Excerpt: We have measured reactions involving agonist binding to a GPCR (G-protein coupled receptor), at low GPCR concentration, by using the associated G-protein hydrolysis of GTP as the source of the amplified heat of reaction. Most of the heat in this example is from GTP hydrolysis by G-proteins activated by a GPCR with a bound agonist. GPCRs are transmembrane proteins that bind […] (e.g. agonist or inhibitor) on the extracellular side and, upon receptor binding, cause a G-protein (also a membrane protein) on the intracellular side to exchange GDP for GTP. After binding GTP, the G-protein dissociates from the GPCR, and the α subunit dissociates from the β-γ complex. The α subunit and β-γ complex can then migrate independently along the membrane and interact with targets.
Explaining this measurement in terms of FIG. 2A, the GPCR is the primary enzyme 44. We refer to the GPCR as an enzyme because it catalyzes the exchange of GDP for GTP on the G-protein and the subsequent dissociation of the α subunit of the G-protein from the β-γ complex. The G-protein before the GDP-GTP exchange and dissociation can be considered the substrate 40. The GPCR is also […], and as such it is activated in this example by binding of agonist, which is therefore an activator 42. The products 46 of the primary enzymatic reaction are the α subunit and β-γ complex of the dissociated G-protein. […]

T1 sequence (Q15077 whole entry, the tested form may be a part, one chain of several): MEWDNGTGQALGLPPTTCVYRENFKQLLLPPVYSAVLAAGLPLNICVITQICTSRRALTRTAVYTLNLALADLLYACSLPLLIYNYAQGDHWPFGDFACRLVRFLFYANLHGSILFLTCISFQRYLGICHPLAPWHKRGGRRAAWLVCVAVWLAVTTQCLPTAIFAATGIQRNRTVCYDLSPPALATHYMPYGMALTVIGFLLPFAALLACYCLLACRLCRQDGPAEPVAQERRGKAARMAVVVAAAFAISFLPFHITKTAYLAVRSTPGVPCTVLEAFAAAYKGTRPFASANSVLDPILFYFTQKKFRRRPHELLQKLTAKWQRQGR

nanocalorimeter signal magnitude (differential temperature) (fragmented membranes with over-expressed P2Y6, 1 mg/ml total protein, 250 nL drops): 1.2 m° C.
duration of nanocalorimeter signal after the drops are merged (fragmented membranes with over-expressed P2Y6): 1 to 2 s
Compound: O=c1ccn([C@@H]2O[C@H](COP(=O)(O)OP(=O)(O)O)[C@@H](O)[C@H]2O)c(=O)[nH]1 [UDP]
